In ChEMBL document CHEMBL1139346, “Discovery of innovative small molecule therapeutics” (2009):

Tests used:
Rattus norvegicus [1] = experiment: Neuroprotective effect in rat transient mCAO focal ischemia model assessed as reduction of infarct volume at 30 mg/kg relative to control; assay type: functional; set-up: scale not given: the % may be the effect or the level left
Rattus norvegicus [2] = experiment: Neuroprotective effect in rat transient mCAO focal ischemia model assessed as reduction of infarct volume at 10 mg/kg relative to control; assay type: functional; set-up: scale not given: the % may be the effect or the level left

SMILES: CO[C@@H]1C/C(C)=C\[C@H]2CC[C@@H]([C@@H](C)C[C@@H](C)C(=O)[C@H](OC)[C@H](O)/C(C)=C/[C@@H](C)C(=O)C[C@@H]([C@H](C)C[C@@H]3CC[C@@H](O)[C@H](OC)C3)OC(=O)[C@@H]3CCCCN3C(=O)C(=O)[C@]3(O)O[C@@H](CC[C@H]3C)C1)N(c1ccccc1)O2 [ILS-920]
- Activity (Rattus norvegicus [1]): 36%
- Activity (Rattus norvegicus [2]): 23%
